Assay results reported in patent US20130280269A1, “Manipulation of HSP70 and IRE1Alpha Protein Interactions” (National University of Ireland, priority 2010, published 2013).

B1: IRE1α ΔC-HA (enzyme)
chain: IFGSTSTVTLPETLLFVSTLDGSLHAVSKRTGSIKWTLKEDPVLQVPTHVEEPAFLPDPNDGSLYTLGSKNNEGLTKLPFTIPELVQASPCRSSDGILYMGKKQDIWYVIDLLTGEKQQTLSSAFADSLCPSTSLLYLGRTEYTITMYDTKTRELRWNATYFDYAASLPEDDVDYKMSHFVSNGDGLVVTVDSESGDVLWIQNYASPVVAFYVWQREGLRKVMHINVAVETLRYLTFMSGEVGRITKWKYPFPKETEAKSKLTPTLYVGKYSTSLYASPSMVHEGVAVVPRGSTLPLLEGPQTDGVTIGDKGECVITPSTDVKFDPGLKSKNKLNYLRNYWLLIGHHETPLSASTKMLERFPNNLPKHRENVIPADSEKKSFEEVINLVDQTSENAPTTVSRDVEEKPAHAPARPEAPVDSMLKDMATIILSTFLLIGWVAFIITYPLSMHQQQQLQHQQFQKELEKIQLLQQQQQQLPFH
notes: HA-tagged IRE1α lacking the cytosolic C-terminal region; also called IRE1α DC-HA; not shown: HA tag

How the values were obtained:
PC12 cells [1] = experiment: Release of cytochrome c into the cytosol, western blot of cytosolic extracts; type: cell-based, Rat; details: 0.25 μM Tg, 24 h
Experimental: (§1) FIG. 2. Hsp72 prevents ER stress-induced loss of mitochondrial membrane potential and cytochrome c release. (A) The control (Neo) and Hsp72 expressing (Hsp72) PC12 cells were either untreated (Control) or treated with (0.25 μM) Tg for the indicated time and mitochondrial membrane potential was assessed by TRME staining and flow cytometry. A representative image of three independent experiments is shown. (B) The control (Neo) and Hsp72 expressing (Hsp72) PC12 cells were treated (0.25 μM) Tg for indicated time points. Following treatment cells were incubated with TMRE (100 nM). Mitochondrial membrane potential was monitored by measuring the fluorescence intensity at 582 nm (FL2). Average and error bars represent mean±SD from three independent experiments. (C) The control (Neo) and Hsp72 expressing (Hsp72) PC12 cells were treated with (0.25 μM) Tg for the indicated time. Cytosolic extracts were prepared as described in materials and methods and resolved by SDS-PAGE followed by western blotting using antibodies against Cytochrome c and β-actin.
To further study the involvement of mitochondria in ER stress-induced cell death, the release of cytochrome c into the cytosol was assessed. […]

PC12 cells [2] = experiment: Loss of mitochondrial membrane potential (ΔΨm), TMRE staining and flow cytometry; type: cell-based, Rat; details: 48 h, thapsigargin 0.25 μM
Experimental: as §1
The effect of Hsp72 on the dissipation of ΔΨm and release of cytochrome c to the cytosol upon exposure to ER stress stimuli was evaluated. To quantify ΔΨm, probe tetramethylrhodamine ethyl ester (TMRE, Molecular Probes), a potentiometric fluorescent dye that incorporates into mitochondria in a ΔΨm-dependent manner, was used. Cells were trypsinized and then were either left untreated or treated with 0.25 μM thapsigargin. The cells were then incubated with TMRE for 30 min in the dark and analyzed by flow cytometry using a FACSCalibur instrument. […] The expression of Hsp72 inhibited the loss of ΔΨm (FIG. 2A). At 48 h, loss of ΔΨm was detected in 80-90% of Neo cells treated with thapsigargin or tunicamycin, respectively (FIG. 2B).

[3] = target: T1, wild-type Hsp72 (inducible form of Hsp70), stably expressed in PC12 cells (Homo sapiens (Human), UniProt P0DMV8 2-641, limits assumed); experiment: co-immunoprecipitation with HA-agarose from Hsp72-expressing PC12 cells, western blot (FIG. 5C)
T1 construct: Expressed from a plasmid (gift of Dr. Tomomi Gotoh) in rat PC12 cells and tested in cell lysates by co-immunoprecipitation; also called Hsp72 WT; inducible Hsp70
T1 sequence (P0DMV8 2-641 limits assumed): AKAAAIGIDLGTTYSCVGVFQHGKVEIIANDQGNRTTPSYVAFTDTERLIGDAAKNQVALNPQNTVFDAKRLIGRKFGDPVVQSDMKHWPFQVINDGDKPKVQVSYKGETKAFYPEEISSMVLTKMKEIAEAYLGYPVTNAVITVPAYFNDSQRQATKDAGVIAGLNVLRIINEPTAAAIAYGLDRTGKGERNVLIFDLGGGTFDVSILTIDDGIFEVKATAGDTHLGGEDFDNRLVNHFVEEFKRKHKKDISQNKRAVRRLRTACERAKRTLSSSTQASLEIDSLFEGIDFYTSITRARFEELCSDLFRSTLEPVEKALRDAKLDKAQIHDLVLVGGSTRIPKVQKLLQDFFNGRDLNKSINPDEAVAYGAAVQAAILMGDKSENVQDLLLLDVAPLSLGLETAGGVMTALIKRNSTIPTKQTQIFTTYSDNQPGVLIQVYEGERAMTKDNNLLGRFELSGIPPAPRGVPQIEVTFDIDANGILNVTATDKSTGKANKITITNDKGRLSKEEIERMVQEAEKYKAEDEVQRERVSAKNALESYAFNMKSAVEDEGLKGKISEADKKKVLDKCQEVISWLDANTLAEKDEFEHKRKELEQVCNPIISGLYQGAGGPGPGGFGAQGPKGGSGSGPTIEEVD
Experimental: FIG. 5. Hsp72 forms a protein complex with IRE1α, and ATPase domain of HSP72 is critical for IRE1α binding. (A) Schematic diagram for IRE1α structure domains and expression constructs. (B) Schematic diagram for Hsp72 structure domains and expression constructs. (C) Hsp72 expressing PC12 cells (Hsp2) were transfected with empty vector (EV) or expression vectors for IRE1α FL-HA or IRE1α ΔC-HA. After 24 h, cells were either left untreated (UT) or treated with (0.25 μM) Tg for 12 h and then the co-precipitation of Hsp72 with IRE1α FL-HA or IRE1α ΔC-HA was evaluated by IP and western blot. (D) PC12 cells expressing the indicated Hsp72 constructs were transfected with IRE1α FL-HA. […] Co-precipitation of wild-type, ΔATPase and ΔEEVD mutant of Hsp72 with IRE1α FL-HA was evaluated by IP and western blot. […] After 48 hr, IRE1α FL-HA was immunoprecipitated and its association with endogenous Hsp72 was assessed by western blot. (F) Endogenous Hsp72 was immunoprecipitated from HEK 293 cells transiently transfected with IRE1α FL-HA expression vector or empty vector (EV), and its association with IRE1α was determined by western blot analysis. […]
Interaction of Hsp72-IRE1α was determined by co-immunoprecipitation assays. […] Protein complexes were extracted by boiling the beads with 2× lane marker buffer and analysed by western blotting as described above using the primary antibody IRE1α (Cell Signalling Cat#3294S). […]

Row | binding result [3] | Molecule | release of cytochrome c induced by thapsigargin (PC12 cells [1]; Hsp72 expressing PC12 cells, compared with Neo cells) | release of cytochrome c from mitochondria to the cytoplasm (PC12 cells [1]; control (Neo) PC12 cells) | loss of ΔΨm, cells (PC12 cells [2]; Hsp72 expressing PC12 cells) [%] | loss of ΔΨm, cells (PC12 cells [2]; control (Neo) PC12 cells) [%]
1 |  | C/C=C(/C)C(=O)O[C@H]1C(C)=C2[C@H]([C@@H]1OC(=O)CCCCCCC)[C@@](C)(OC(C)=O)C[C@H](OC(=O)CCC)[C@@]1(O)[C@H]2OC(=O)[C@@]1(C)O [thapsigargin] | significantly reduced | triggered release of cytochrome c | 50 | 80
2 |  | tunicamycin |  |  | 50 | 90
3 | no binding | B1 |  |  |  | 
